These results are taken from ChEMBL document CHEMBL1201862, “PubChem BioAssay data set” (2004).

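Briefly, cells in 96-well plates were exposed to five compound concentrations for 48 h, and endpoints were estimated by linear interpolation. Abbreviation: GI50, concentration required for 50% inhibition of growth.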 Calls of active or inactive are those of the source. Cut-off read from the data, not from the text of the source: active = GI50 up to about 1.1 µM and inactive = higher. A value given as a limit tells only on which side of the number the result lay.

Test systems include 786-0; COLO 205; EKVX; HCT-116; HOP-92; LOX IMVI; M14; OVCAR-3; SF-539; SK-OV-3; SNB-19; SNB-75; SR; TK-10; UACC-257; UACC-62; OVCAR-5.
What all share (assay): growth of human tumour cells (NCI), 48 h

Regarding `CCCN(CCC)C(=O)Cc1c2n(c3ccccc13)Cc1ccccc1-2`, the GI50 with 786-0 is 57 µM (inactive); in the assay on COLO 205 it was 95.3 µM (inactive); in the assay with EKVX, > 100 µM (inactive); in the assay with HCT-116, 28.8 µM (inactive); in the assay with HOP-92 it was 5 µM (inactive); with LOX IMVI, 83.4 µM (inactive). The GI50 is > 100 µM (inactive) with M14; > 100 µM (inactive) in the assay with OVCAR-3; > 100 µM (inactive) in the assay on SF-539; > 100 µM (inactive) in the assay with SK-OV-3; > 100 µM (inactive) in the assay with SNB-19; 6.62 µM (inactive) with SNB-75. The GI50 was 33.1 µM (inactive) in the assay on SR, > 100 µM (inactive) in the assay with TK-10, > 100 µM (inactive) in the assay on UACC-257 and 21.1 µM (inactive) in the assay with UACC-62.

Regarding `NC(=S)N/N=C(/CCN1CCCC1)CC(C1=C(O)C2=CCCCC2OC1=O)c1ccccc1` (stereo unspecified), the GI50 in the assay with 786-0 is > 100 µM (inactive); in the assay on COLO 205, 54.1 µM (inactive); in the assay with EKVX, > 100 µM (inactive); in the assay with HCT-116, > 100 µM (inactive); in the assay with HOP-92, 32.3 µM (inactive); in the assay on LOX IMVI, > 100 µM (inactive). Besides, the GI50 with M14, in the assay with OVCAR-3, with OVCAR-5, in the assay with SF-539, in the assay on SK-OV-3 and with SNB-19 was > 100 µM (inactive) throughout. Also, the GI50 was > 100 µM (inactive) with SNB-75; 70 µM (inactive) in the assay on SR; > 100 µM (inactive) in the assay with TK-10; > 100 µM (inactive) in the assay with UACC-257; > 100 µM (inactive) in the assay with UACC-62.

For `CCOC(=O)Cn1c(=O)[nH]c(=O)c2c1ncn2Cc1ccccc1`, the GI50 in the assay with 786-0, with COLO 205, in the assay with EKVX, with HCT-116, in the assay with HOP-92 and in the assay with LOX IMVI was > 100 µM (inactive) throughout. For the same molecule, the GI50 in the assay on M14, with OVCAR-3, in the assay on OVCAR-5, in the assay with SF-539, in the assay with SK-OV-3 and in the assay with SNB-19 was > 100 µM (inactive) each time. Moreover, the GI50 in the assay on SNB-75, in the assay with SR, with TK-10, in the assay on UACC-257 and with UACC-62 was > 100 µM (inactive) in each case.

As for `Cc1cc(N(CCC#N)CCC#N)ccc1/C(Sc1ccccc1)=C(\NC(=O)/C=C/c1ccccc1)C(=O)Sc1ccccc1`, the GI50 was 2.28 µM (inactive) in the assay with 786-0; 2.55 µM (inactive) in the assay on COLO 205; 6.18 µM (inactive) with EKVX; 2.17 µM (inactive) with HCT-116; 2.92 µM (inactive) in the assay with HOP-92; 0.83 µM (active) in the assay on LOX IMVI. For the same molecule, the GI50 in the assay on M14 is 1.82 µM (inactive); in the assay with OVCAR-3 it was 2.92 µM (inactive); with OVCAR-5 it was 5.45 µM (inactive); in the assay with SF-539 it was 1.47 µM (inactive); in the assay with SK-OV-3 it was 5.55 µM (inactive); with SNB-19, 9.84 µM (inactive). Besides, the GI50 was 2.13 µM (inactive) in the assay on SNB-75; 0.665 µM (active) in the assay on SR; 5.35 µM (inactive) in the assay on TK-10; 5.53 µM (inactive) with UACC-257; 2.82 µM (inactive) in the assay with UACC-62.

Take `CC(=O)Nc1[nH]n(C)c(=O)c1-c1nnc(C)s1`: the GI50 with 786-0, in the assay on COLO 205, in the assay with EKVX, in the assay on HCT-116, with HOP-92 and in the assay on LOX IMVI was > 100 µM (inactive) each time. Also, the GI50 in the assay with M14, with OVCAR-3, in the assay on OVCAR-5, in the assay on SF-539, in the assay on SK-OV-3 and in the assay on SNB-19 was > 100 µM (inactive) in each case. In addition, the GI50 in the assay with SNB-75, in the assay on SR, with TK-10 and with UACC-257 was > 100 µM (inactive) throughout.

As for `O=C(Nc1ccc([N+](=O)[O-])cc1[N+](=O)[O-])C(=O)C(C(=O)c1ccc(Cl)c(Cl)c1)C1OC(=O)c2ccccc21` (stereo unspecified), the GI50 with 786-0 is 18.5 µM (inactive); in the assay with COLO 205 it was 21.6 µM (inactive); in the assay on EKVX, 22.1 µM (inactive); with HCT-116, 19.4 µM (inactive); in the assay on HOP-92, 1.26 µM (inactive); in the assay on LOX IMVI it was 17.5 µM (inactive). The GI50 with M14 is > 10 µM (inactive); in the assay with OVCAR-3, 27.7 µM (inactive); with OVCAR-5 it was 25.8 µM (inactive); in the assay with SF-539 it was > 10 µM (inactive); in the assay on SK-OV-3 it was 23.2 µM (inactive); with SNB-19, 18.6 µM (inactive). Moreover, the GI50 in the assay on SNB-75 was > 100 µM (inactive); in the assay with SR it was 26.5 µM (inactive); in the assay on TK-10 it was 32.1 µM (inactive); in the assay with UACC-257, 22.6 µM (inactive); with UACC-62 it was 16.3 µM (inactive).

On to `O/N=C1/C(=C/c2ccc(OCc3ccccc3)cc2)CCCC1C(NO)c1ccc(OCc2ccccc2)cc1` (stereo unspecified), for which the GI50 in the assay with 786-0 was 18.5 µM (inactive); in the assay with COLO 205 it was 16.9 µM (inactive); in the assay on EKVX, 5.43 µM (inactive); with HCT-116 it was 8.97 µM (inactive); with HOP-92, 11.1 µM (inactive); in the assay on LOX IMVI it was 4.05 µM (inactive). Also, the GI50 in the assay on M14 is 4.98 µM (inactive); in the assay with OVCAR-3 it was 14.2 µM (inactive); in the assay on OVCAR-5 it was > 100 µM (inactive); in the assay with SF-539, 24.9 µM (inactive); in the assay with SK-OV-3 it was > 100 µM (inactive); with SNB-19 it was 80.9 µM (inactive). In addition, the GI50 was 34 µM (inactive) in the assay with SNB-75, 11.8 µM (inactive) in the assay with SR and 10 µM (inactive) with UACC-257.

With `O=[N+]([O-])c1ccc(C2=Nn3cnnc3SC2)o1`, the GI50 with 786-0 is 17.3 µM (inactive); in the assay with HCT-116 it was 14 µM (inactive); in the assay on HOP-92, 26.1 µM (inactive); in the assay with LOX IMVI it was 2.06 µM (inactive); with M14 it was 15.1 µM (inactive); in the assay with OVCAR-3 it was 17.1 µM (inactive). For the same molecule, the GI50 is 22.2 µM (inactive) with OVCAR-5; 17.6 µM (inactive) in the assay on SF-539; > 10 µM (inactive) in the assay on SK-OV-3; 29 µM (inactive) in the assay on SNB-19; 25.3 µM (inactive) in the assay on SNB-75; 16.7 µM (inactive) in the assay with SR. Also, the GI50 with TK-10 was 39.7 µM (inactive); with UACC-257 it was 15.5 µM (inactive); in the assay on UACC-62, > 10 µM (inactive).

Take `NNC(=O)N/N=C(/CC1(O)C(=O)Nc2ccc(Br)cc21)c1ccccc1` (stereo unspecified): the GI50 is 57.3 µM (inactive) in the assay with 786-0; 22.7 µM (inactive) in the assay with EKVX; 27.9 µM (inactive) with HCT-116; 18.1 µM (inactive) in the assay on HOP-92; 18.1 µM (inactive) in the assay with LOX IMVI; 37.6 µM (inactive) with M14. The GI50 is 41.8 µM (inactive) in the assay on OVCAR-3; 23.9 µM (inactive) with SF-539; 40.2 µM (inactive) in the assay with SK-OV-3; 11.8 µM (inactive) in the assay on SNB-19; 9.27 µM (inactive) in the assay with SNB-75; 31.6 µM (inactive) in the assay on SR. The GI50 with TK-10 is 55.6 µM (inactive); in the assay on UACC-257, 77.3 µM (inactive); with UACC-62 it was 19.8 µM (inactive).

As for `CC(C)=CC(=O)CC(=O)C(=O)Nc1ccc(C)c(C)c1`, the GI50 with 786-0, with EKVX, in the assay with HCT-116, with HOP-92, with LOX IMVI and in the assay with M14 was > 100 µM (inactive) throughout. In addition, the GI50 in the assay with OVCAR-3, in the assay with SF-539, in the assay on SK-OV-3, with SNB-19, in the assay on SNB-75 and in the assay on SR was > 100 µM (inactive) throughout. For the same molecule, the GI50 in the assay on TK-10, in the assay with UACC-257 and in the assay with UACC-62 was > 100 µM (inactive) each time.

Regarding `Nc1c(-c2nc3ccccc3[nH]2)sc(=S)n1-c1ccccc1`, the GI50 in the assay with 786-0 was 61.2 µM (inactive); in the assay with COLO 205 it was > 100 µM (inactive); with EKVX, 55.2 µM (inactive); with HCT-116, > 100 µM (inactive); in the assay with HOP-92, > 100 µM (inactive); with M14 it was > 100 µM (inactive). The GI50 with OVCAR-3 is 51.2 µM (inactive); with OVCAR-5, > 100 µM (inactive); in the assay with SF-539, > 100 µM (inactive); in the assay on SK-OV-3, > 100 µM (inactive); in the assay with SNB-19 it was > 100 µM (inactive); in the assay on SNB-75, 44.8 µM (inactive). The figures for the GI50 with SR, with UACC-257 and with UACC-62 were 30.3 µM (inactive), > 100 µM (inactive) and 13.5 µM (inactive), respectively.

As for `C[N+]1(C)C[C@@H](O)C[C@@H]1C(=O)[O-]` [BETONICINE], the GI50 in the assay with 786-0, in the assay on COLO 205, in the assay with EKVX, with HCT-116, in the assay with HOP-92 and with LOX IMVI was > 100 µM (inactive) throughout. Besides, the GI50 with M14, with OVCAR-3, in the assay on SF-539, in the assay on SK-OV-3, in the assay with SNB-19 and in the assay with SNB-75 was > 100 µM (inactive) each time. Besides, the GI50 in the assay with SR, in the assay on TK-10, in the assay with UACC-257 and with UACC-62 was > 100 µM (inactive) throughout.
